Each block holds one compound with its values, some of them ahead of it.
Tested on: 941728-121-R-J1-PDC complex spheroid viability
Assay: Anticancer human tumor 941728-121-R-J1-PDC patient-derived lung adenocarcinoma cell line growth inhibition [RAS]
Settings: for IC50: curve of first compound; for viability, T/C: stronger effect = lower value
Procedure, shortened: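 Tumour cells grown as complex spheroids with HUVEC endothelial cells and mesenchymal stem cells, treated with RAS pathway inhibitor combinations. Each agent spans half-log steps from near clinical Cmax, or 10 microM where Cmax is unknown.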
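Also: spheroids exposed to compounds for 7 days before readout.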
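For viability, T/C in this document: 100% = DMSO vehicle control viability.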

IC50 (second compound 0.000949 µM): < 0.949 nM | IC50 (second compound 0.003 µM): < 0.949 nM | IC50 (second compound 0.00949 µM): < 0.949 nM | IC50 (second compound 0.03 µM): < 0.949 nM | IC50 (second compound 0.0949 µM): < 0.949 nM | IC50 (second compound 0.3 µM): < 0.949 nM
Structure (SMILES): CCc1c2c(nc3ccc(O)cc13)-c1cc3c(c(=O)n1C2)COC(=O)[C@]3(O)CC + CCn1c(-c2cc(N3CCN(C)CC3)cnc2C(C)OC)c2c3cc(ccc31)-c1csc(n1)CC(NC(=O)C1CC1C)C(=O)N1CCCC(N1)C(=O)OCC(C)(C)C2
viability, T/C (second compound 0.000949 µM, first compound 0.000949 µM): 24.6% | viability, T/C (second compound 0.000949 µM, first compound 0.003 µM): 24.4% | viability, T/C (second compound 0.000949 µM, first compound 0.00949 µM): 19.9% | viability, T/C (second compound 0.000949 µM, first compound 0.03 µM): 20.5% | viability, T/C (second compound 0.000949 µM, first compound 0.0949 µM): 18.1% | viability, T/C (second compound 0.000949 µM, first compound 0.3 µM): 9.95% | viability, T/C (second compound 0.003 µM, first compound 0.000949 µM): 25.8% | viability, T/C (second compound 0.003 µM, first compound 0.003 µM): 16.7% | viability, T/C (second compound 0.003 µM, first compound 0.00949 µM): 12.8% | viability, T/C (second compound 0.003 µM, first compound 0.03 µM): 13.4% | viability, T/C (second compound 0.003 µM, first compound 0.0949 µM): 10.3% | viability, T/C (second compound 0.003 µM, first compound 0.3 µM): 5.76% | viability, T/C (second compound 0.00949 µM, first compound 0.000949 µM): 17.3% | viability, T/C (second compound 0.00949 µM, first compound 0.003 µM): 10.6% | viability, T/C (second compound 0.00949 µM, first compound 0.00949 µM): 13.3% | viability, T/C (second compound 0.00949 µM, first compound 0.03 µM): 10.5% | viability, T/C (second compound 0.00949 µM, first compound 0.0949 µM): 7.7% | viability, T/C (second compound 0.00949 µM, first compound 0.3 µM): 4.19% | viability, T/C (second compound 0.03 µM, first compound 0.000949 µM): 13.7% | viability, T/C (second compound 0.03 µM, first compound 0.003 µM): 14.1% | viability, T/C (second compound 0.03 µM, first compound 0.00949 µM): 9.58% | viability, T/C (second compound 0.03 µM, first compound 0.03 µM): 8.62% | viability, T/C (second compound 0.03 µM, first compound 0.0949 µM): 5.46% | viability, T/C (second compound 0.03 µM, first compound 0.3 µM): 4.56% | viability, T/C (second compound 0.0949 µM, first compound 0.000949 µM): 12.9% | viability, T/C (second compound 0.0949 µM, first compound 0.003 µM): 11.2% | viability, T/C (second compound 0.0949 µM, first compound 0.00949 µM): 10.6% | viability, T/C (second compound 0.0949 µM, first compound 0.03 µM): 8.43% | viability, T/C (second compound 0.0949 µM, first compound 0.0949 µM): 5.36% | viability, T/C (second compound 0.0949 µM, first compound 0.3 µM): 4.56% | viability, T/C (second compound 0.3 µM, first compound 0.000949 µM): 10.8% | viability, T/C (second compound 0.3 µM, first compound 0.003 µM): 10.7% | viability, T/C (second compound 0.3 µM, first compound 0.00949 µM): 9.64% | viability, T/C (second compound 0.3 µM, first compound 0.03 µM): 10.6% | viability, T/C (second compound 0.3 µM, first compound 0.0949 µM): 5.65% | viability, T/C (second compound 0.3 µM, first compound 0.3 µM): 3.94%

IC50 (second compound 0.000949 µM): < 3.16 nM | IC50 (second compound 0.003 µM): 382 nM | IC50 (second compound 0.00949 µM): < 3.16 nM | IC50 (second compound 0.03 µM): < 3.16 nM | IC50 (second compound 0.0949 µM): < 3.16 nM | IC50 (second compound 0.3 µM): < 3.16 nM
Structure (SMILES): C=CC(=O)Nc1cc(Nc2nccc(-c3cn(C)c4ccccc34)n2)c(OC)cc1N(C)CCN(C)C + CCn1c(-c2cccnc2C(C)OC)c2c3cc(ccc31)N1CCOC(CC(NC(=O)C(C(C)C)N(C)C(=O)C3(F)CCN(C(=O)C#CC(C)(C)N(C)C)CC3)C(=O)N3CCCC(N3)C(=O)OCC(C)(C)C2)C1
viability, T/C (second compound 0.000949 µM, first compound 0.00316 µM): 24.4% | viability, T/C (second compound 0.000949 µM, first compound 0.01 µM): 22.9% | viability, T/C (second compound 0.000949 µM, first compound 0.0316 µM): 16.2% | viability, T/C (second compound 0.000949 µM, first compound 0.1 µM): 20.1% | viability, T/C (second compound 0.000949 µM, first compound 0.316 µM): 19.2% | viability, T/C (second compound 0.000949 µM, first compound 1 µM): 12.8% | viability, T/C (second compound 0.003 µM, first compound 0.00316 µM): 89.7% | viability, T/C (second compound 0.003 µM, first compound 0.01 µM): 91.4% | viability, T/C (second compound 0.003 µM, first compound 0.0316 µM): 69.4% | viability, T/C (second compound 0.003 µM, first compound 0.1 µM): 69.9% | viability, T/C (second compound 0.003 µM, first compound 0.316 µM): 53.1% | viability, T/C (second compound 0.003 µM, first compound 1 µM): 35.4% | viability, T/C (second compound 0.00949 µM, first compound 0.00316 µM): 22.7% | viability, T/C (second compound 0.00949 µM, first compound 0.01 µM): 18.3% | viability, T/C (second compound 0.00949 µM, first compound 0.0316 µM): 20.5% | viability, T/C (second compound 0.00949 µM, first compound 0.1 µM): 19.2% | viability, T/C (second compound 0.00949 µM, first compound 0.316 µM): 16.1% | viability, T/C (second compound 0.00949 µM, first compound 1 µM): 12.8% | viability, T/C (second compound 0.03 µM, first compound 0.00316 µM): 25.8% | viability, T/C (second compound 0.03 µM, first compound 0.01 µM): 20.8% | viability, T/C (second compound 0.03 µM, first compound 0.0316 µM): 16.8% | viability, T/C (second compound 0.03 µM, first compound 0.1 µM): 16.9% | viability, T/C (second compound 0.03 µM, first compound 0.316 µM): 14.2% | viability, T/C (second compound 0.03 µM, first compound 1 µM): 15.5% | viability, T/C (second compound 0.0949 µM, first compound 0.00316 µM): 22% | viability, T/C (second compound 0.0949 µM, first compound 0.01 µM): 22.4% | viability, T/C (second compound 0.0949 µM, first compound 0.0316 µM): 20.7% | viability, T/C (second compound 0.0949 µM, first compound 0.1 µM): 16.6% | viability, T/C (second compound 0.0949 µM, first compound 0.316 µM): 15.9% | viability, T/C (second compound 0.0949 µM, first compound 1 µM): 17.2% | viability, T/C (second compound 0.3 µM, first compound 0.00316 µM): 22.5% | viability, T/C (second compound 0.3 µM, first compound 0.01 µM): 21.6% | viability, T/C (second compound 0.3 µM, first compound 0.0316 µM): 21.3% | viability, T/C (second compound 0.3 µM, first compound 0.1 µM): 20.1% | viability, T/C (second compound 0.3 µM, first compound 0.316 µM): 21.7% | viability, T/C (second compound 0.3 µM, first compound 1 µM): 21.4%

— PubChem BioAssay AID2060896 (Molecular Pharmacology Branch, DTP, NCI, 2025)
